Values quoted from earlier work as cited in patent US20150005255A1, “COSMETIC COMPOSITION, FORMULATION IN GEL-CREAM AND ITS USE” (EMS S.A., priority 2013, published 2015).

How the values were obtained:
[1] = system: lysosomal enzymes; settings: in skin care products
[2] = system: localized lipodystrophy

| Substance | reduction of lysosomal activity [1] | volume of observed areas with cellulite ([2]; formula of Xantalgosil C applied twice daily for one month, 25 volunteers) | activation of adipocyte lipolysis ([2]; in vivo) |
| --- | --- | --- | --- |
| Escin | up to 30% |  |  |
| acefylline methylsilanol mannuronate [Xantalgosil C] |  | reduction of volume in observed areas | outstanding action |
